Data from patent US20160374352A1, “BOTANICAL ANTIMICROBIAL COMPOSITIONS” (The Trustees of Columbia University in the City of, priority 2015, published 2016).

Key:
S. aureus = test: Method B: surface disinfectant base solution diluted 1:20, 1 minute (Table 8); format: cell-based; settings: stock solution in surface disinfectant base diluted 1:20, 1 minute (Method B)
P. aeruginosa = test: Example 9: phenoxyethanol, PCMX, pine oil compositions diluted 1:20, albumin, 15 seconds (Table 3); format: cell-based; settings: PXE stock 10.0% w/w, 0.5% w/w in 1 to 20 dilution
Procedure: Phenoxyethanol, PCMX and pine oil were added to 50% isopropanol in the amounts described in table 3 below (water was added to bring the total weight % of the composition 100%). The compositions described by table 3 were prepared and diluted 1:20 with water and tested using the following method. P. aeruginosa was used as the test organism (10^8 cfu/ml). 0.1 ml culture was added to 0.1 ml of a 3.0% albumin solution, mixed for 5 seconds and left for 2 minutes at room temperature. 0.8 ml of test sample was added and the tube was vortexed for 15 seconds. Serial dilutions were made with Drug Neutralizing Fluid and aliquots were plated on Trypticase soy broth agar plates. The plates were incubated for 24-48 hours and colony counts were then determined.

[1] = oral rinses of WO/2014/092999; cited from earlier work

| Molecule | synergistic activity with thymol and vanilla extract [1] | other results |
| --- | --- | --- |
| Cc1cc(O)cc(C)c1Cl [PCMX] |  | log reduction from control growth (S. aureus): 0.5 log |
| OCCOc1ccccc1 [PXE] |  | Log reduction from control (P. aeruginosa): 0.6 log |
| [H]/N=C(\N/C(=N/[H])NCCCCCCNC(=N)NC(=N)Nc1ccc(Cl)cc1)Nc1ccc(Cl)cc1 [chlorhexidine] | did not show significant synergistic activity |  |
| polyhexamethylene biguanide [PHMB] | synergistic activity |  |
